System: pancreatin (Panzytrat 40,000)
Assay: Cleavage experiments with pancreatin in water, followed by acid number
Conditions: individual esters in pure form, 50° C.
Experimental: The pancreatin is used in the form of the commercially available product Panzytrat® 40,000 from the Allergan company. The whole mixture is stirred on a hot plate at 50° C.; the course of the reaction is determined and monitored by continuously recording the acid number over time.

Substance: 3-hydroxybutyric acid mono-diglycerol ester
- cleavage by pancreatin to free 3-hydroxybutyric acid (3-BHB-FS): cleaved by pancreatin to the free 3-hydroxybutyric acid

Substance: 3-hydroxybutyric acid tri-diglycerol ester
- cleavage by pancreatin to free 3-hydroxybutyric acid (3-BHB-FS): cleaved by pancreatin to the free 3-hydroxybutyric acid

Substance: 3-hydroxybutyric acid di-diglycerol ester
- cleavage by pancreatin to free 3-hydroxybutyric acid (3-BHB-FS): cleaved by pancreatin to the free 3-hydroxybutyric acid
